The results in this text go back to publication PMC3770654, “Gastric Antimicrobial Peptides Fail to Eradicate Helicobacter pylori Infection Due to Selective Induction and Resistance” (PLoS ONE, 2013).

Holding throughout (type): cell-based
Assay [1] deals with H. pylori KaE1, DSM 9691, DSM 10242 and DSM 21031. Description: Radial diffusion assay, four H. pylori strains. The note with it: all four Helicobacter strains; 20 µg peptide per well, 3 days, 37 °C, microaerophilic. The method, then: Additionally to determine inhibition of bacterial growth we performed radial diffusion assays with a modified protocol of the procedure from Robert Lehrer et al.. Briefly, H. pylori was grown on Columbia blood agar (BD, Sparks, USA), suspended in Brain Heart Infusion diluted 1:5 with aqua dest. and plated on an agar containing 20% brain heart infusion with 5% fetal calf serum. Wells with 3 mm diameter were punched into the agar and peptides were applied equivalent to the flow cytometric assay in a concentration of 20 µg per well. The agar plates were incubated for 3 days at 37 °C in a microaerophilic atmosphere with CampyGen.

The next assay deals with P. aeruginosa. Description: Killing of P. aeruginosa by elafin (data not shown).
For another assay, the system named is H. pylori DMS 9691. Description: Plating on Columbia blood agar with CFU counting. The note with it: peptide 20 µg/ml, means of two independent experiments, control 8.85 x 10^5. On the procedure:
(§1) H. pylori strains were cultured on Columbia blood agar at 37 C° for 2 days in a microaerophilic atmosphere with CampyGen (Oxoid, Hampshire, UK). Subsequently the bacteria were suspended in Schaedler Broth (BD, Sparks, USA) diluted 1:6 with aqua dest. for incubation with antimicrobial peptides.
(§2) Bacterial viability after incubation with antimicrobial peptides or biopsy extracts was analyzed with the membrane potential sensitive dye DiBAC4(3) (bis-(1,3-dibutylbarbituric acid) trimethine oxonol) (Invitrogen, Carlsbad, CA, USA) as described previously. Briefly, 1.5x10^6 mid-logarithmic-phase bacteria/ml of H. pylori or E. coli in Schaedler Broth 1:6 were incubated with 20 µg/ml HBD1-4 (Peptide Institute, Osaka, Japan), elafin (Proteo Biotech, Kiel, Germany for FACS analysis and RDA and elafin from Peptide Institute, Osaka for CFU determination), with LL37 (Innovagen, Lund, Sweden) or with 10 µg total protein of antrum biopsy extracts at 37°C. After 90 minutes 1 µg/ml DiBAC4(3) was added to the suspensions and further incubated for 10 minutes. Then, the suspensions were centrifuged with 4500 x g for 10 minutes, pellets resuspended in 300 µl PBS and bacterial fluorescence was analyzed by a FACSCalibur^TM (BD, Sparks, USA), using Cell Quest software (BD, Sparks, USA). In each sample 10000 bacterial events were analyzed for green fluorescence and the antimicrobial activity was determined as percentage of depolarized, fluorescent bacteria. Inhibition of bacterial growth was tested by plating aliquots on Columbia blood agar and incubating at 37 C° for 2 days in a microaerophilic atmosphere with CampyGen (Oxoid, Hampshire, UK). Then colony forming units (CFU) were counted.

In another assay the test system is H. pylori DSM 21031. Description: Plating on Columbia blood agar with CFU counting. Conditions: peptide 20 µg/ml, means of two independent experiments, control 7.45 x 10^5. The method, then:
as §1, §2

Another assay relates to H. pylori DSM 10242. Description: Plating on Columbia blood agar with CFU counting. The note with it: peptide 20 µg/ml, means of two independent experiments, control 6.10 x 10^5. The method, then:
as §1, §2

For a further assay, the system named is H. pylori KaE. Description: Plating on Columbia blood agar with CFU counting. Conditions: peptide 20 µg/ml, means of two independent experiments, control 1.42 x 10^6. On the procedure:
as §1, §2

Assay [2] deals with H. pylori KaE1, DSM 9691, DSM 10242 and DSM 21031. Description: Flow cytometric viability assay with DiBAC4(3), four H. pylori strains. On the procedure:
(§3) The clinical isolate H. pylori KaE1 and the reference strains H. pylori DSM 9691, DSM 10242 and DSM 21031 were tested for susceptibility towards defensins, LL37 and elafin (amino acid sequences Table S1). The strain H. pylori DSM 10242 is positive for the virulence factors VacA and CagA. As control strain for antimicrobial activity served the sensitive E. coli ATCC 25922.
as §1, §2
Background: A flow cytometer gives signals particle by particle.

Another assay deals with E. coli ATCC 25922. Description: Flow cytometric viability assay with membrane potential sensitive dye DiBAC4(3). The method, then:
as §3, §2

“Ala - Gln - Glu - Pro - Val - Lys - Gly - Pro - Val - Ser - Thr - Lys - Pro - Gly - Ser - Cys - Pro - Ile - Ile - Leu - Ile - Arg - Cys - Ala - Met - Leu - Asn - Pro - Pro - Asn - Arg - Cys - Leu - Lys - Asp - Thr - Asp - Cys - Pro - Gly - Ile - Lys - Lys - Cys - Cys - Glu - Gly - Ser - Cys - Gly - Met - Ala - Cys - Phe - Val - Pro - Gln (disulfide) [Elafin, epithelial antiprotease elafin (PI3), cationic, 4 disulphide bridges; Proteo Biotech or Peptide Institute]”: in assay [1], the “zones of inhibition in radial diffusion assay” value was “no zones of inhibition”. For the same substance, in the assay with P. aeruginosa, the “killing of P. aeruginosa” value is recorded as “limited killing”. Moreover, the Colony forming units was 9.59 x 10^5 CFU/ml in the assay with H. pylori DMS 9691, 6.82 x 10^5 CFU/ml in the assay on H. pylori DSM 21031, 4.85 x 10^5 CFU/ml in the assay with H. pylori DSM 10242 and 1.29 x 10^6 CFU/ml in the assay on H. pylori KaE. Further, the bactericidal effect entry in assay [2] (H. pylori, elafin peptides from different companies) is reported as “no bactericidal effect”; in the assay on E. coli ATCC 25922 (E. coli, elafin peptides from different companies) it was “no bactericidal effect”. Further, the depolarized bacteria result in assay [2] (all 4 H. pylori strains, 20 µg/ml peptide, Schaedler Broth 1:6, 37°C, 90 minutes, DiBAC4(3)) is “less than 5%”; in the assay on E. coli ATCC 25922 (20 µg/ml peptide, 1.5x10^6 bacteria/ml in Schaedler Broth 1:6, 37°C, 90 minutes, then DiBAC4(3) 10 minutes, 10000 events), 4%.
